Data as given in patent US20050222146A1, “N-substituted-n-sulfonylaminocyclopropane compounds and pharmaceutical use thereof” (priority 2003, published 2005).

Key:
aggrecanase-1 = molecular target: T1, aggrecanase-1 (Homo sapiens, UniProt O75173); assay: Aggrecanase-1 inhibitory action, Particle Assay (GAG release from aggrecan-containing polyacrylamide particles); assay type: biochemical; conditions: 37° C. for 15 hr, read-out: Experimental Example 1 IC50 AG1
T1 sequence (O75173 213-837): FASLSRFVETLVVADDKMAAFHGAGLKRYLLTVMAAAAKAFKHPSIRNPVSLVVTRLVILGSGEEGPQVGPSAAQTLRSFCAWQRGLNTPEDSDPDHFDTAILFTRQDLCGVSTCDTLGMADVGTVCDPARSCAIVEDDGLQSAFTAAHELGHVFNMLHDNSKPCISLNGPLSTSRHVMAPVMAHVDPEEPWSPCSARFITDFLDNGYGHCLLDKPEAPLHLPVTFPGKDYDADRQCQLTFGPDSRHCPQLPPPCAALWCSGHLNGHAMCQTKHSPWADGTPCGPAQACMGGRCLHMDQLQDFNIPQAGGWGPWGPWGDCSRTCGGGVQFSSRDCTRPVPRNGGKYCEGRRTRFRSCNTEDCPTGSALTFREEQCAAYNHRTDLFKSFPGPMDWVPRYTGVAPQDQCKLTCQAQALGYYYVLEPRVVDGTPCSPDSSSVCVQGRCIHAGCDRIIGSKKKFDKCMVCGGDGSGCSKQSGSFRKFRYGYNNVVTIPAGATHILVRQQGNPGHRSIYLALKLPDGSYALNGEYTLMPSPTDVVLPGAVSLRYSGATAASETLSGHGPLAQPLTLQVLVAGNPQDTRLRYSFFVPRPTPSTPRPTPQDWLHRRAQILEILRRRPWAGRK
Method: Aggrecanase-1 Inhibitory Action
Particle Assay was used for determination of aggrecanase activity.
(§1) The enzyme and substrate were diluted with Tris-HCl buffer, and test compounds were diluted with dimethyl sulfoxide (DMSO).
Test compounds and the enzyme were added into 96-well plate, and polyacrylamide particles containing aggrecan were added as a substrate and the mixture was incubated at 37° C. for 15 hr.
After incubation; the supernatant was transferred to another plate, and mixed with 1,9-dimethylmethylene blue. The absorbance at 595 nm was measured to quantify the amount of glycosaminoglycan (GAG) released in the reaction supernatant. Whale chondroitin sulfate was used as the standard of GAG. The inhibitory activity of the compound in each well (%) was calculated based on the values of enzyme-free well and inhibitor-free well. The inhibitory activity of the compound was represented as IC50 (μM).

MMP-1 = molecular target: T2, MMP-1 (Homo sapiens, UniProt P03956); assay: MMP-1 inhibitory action, Type I collagen Activity Measurement kit (FITC-labeled collagen type I); assay type: biochemical; conditions: 37° C. for 3 hr, read-out: Experimental Example 2 IC50 MMP1
T2 sequence (P03956 100-469): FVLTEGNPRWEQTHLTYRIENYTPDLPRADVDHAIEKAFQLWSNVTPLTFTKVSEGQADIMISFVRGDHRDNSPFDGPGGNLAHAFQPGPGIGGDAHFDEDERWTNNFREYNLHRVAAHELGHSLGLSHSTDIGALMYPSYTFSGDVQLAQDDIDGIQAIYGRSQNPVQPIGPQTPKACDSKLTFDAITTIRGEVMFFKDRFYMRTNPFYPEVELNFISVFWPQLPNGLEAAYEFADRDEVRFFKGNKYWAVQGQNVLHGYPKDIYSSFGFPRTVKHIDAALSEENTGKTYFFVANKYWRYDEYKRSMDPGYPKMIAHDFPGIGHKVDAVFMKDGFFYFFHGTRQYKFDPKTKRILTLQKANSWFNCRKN
Method: For MMP-1 Assay, Type I collagen Activity Measurement kit (YAGAI YU-72013) modified to a 96-well plate format was used.
The principle of the kit is based on the property of collagen that becomes soluble in ethanol after being cleaved by MMP-1.
as §1
The enzyme and test compounds were added into 96-well plate, and fluorescein isothiocianate (FITC)-labeled collagen type I was added as a substrate and the mixture was incubated at 37° C. for 3 hr.
The reaction was terminated by addition of Tris-HCl buffer containing ethanol. After centrifugation, the supernatant containing denatured substrate was transferred to another 96-well plate. The collagenase activity of MMP-1 was determined by measuring FITC fluorescence intensity (excitation wavelength 485 nm, emission wavelength 530 nm) of each well. The inhibitory activity of the compound in each well (%) was calculated based on the values of enzyme-free well and inhibitor-free well. The inhibitory activity of the compound was represented as IC50 (μM).

Structure (SMILES) | IC50 (aggrecanase-1) [µM] | IC50 (MMP-1) [µM]
O=C(O)c1csc(CN([C@]2(C(=O)O)C[C@H]2c2ccccc2)S(=O)(=O)c2ccc(-c3ccc(Cl)cc3)cc2)n1 (relative stereo) [Example 1-60, 2-{[((1R*, 2S*)-1-carboxy-2-phenyl-cyclopropyl)-(4′-chloro-biphenyl-4-sulfonyl)-amino]-methyl}-thiazole-4-carboxylic acid] | < 1 | ≥ 10
O=C(O)c1cccc(CN([C@]2(C(=O)O)C[C@H]2c2cccc(OCCN3CCOCC3)c2)S(=O)(=O)c2ccc(-c3ccc(Cl)cc3)cc2)c1 (relative stereo) [Example 1-101, 3-{[{(1R*,2S*)-1-carboxy-2-[3-(2-morpholin-4-yl-ethoxy)-phenyl]-cyclopropyl}-(4′-chloro-biphenyl-4-sulfonyl)-amino]-methyl}-benzoic acid] | < 1 | ≥ 10
O=C(O)c1cccc(CN([C@]2(C(=O)O)C[C@H]2c2cccc(OCCN3CCCC3)c2)S(=O)(=O)c2ccc(-c3ccc(Cl)cc3)cc2)c1 (relative stereo) [Example 1-100, 3-{[{(1R*,2S*)-1-carboxy-2-[3-(2-pyrrolidin-1-yl-ethoxy)-phenyl]-cyclopropyl}-(4′-chloro-biphenyl-4-sulfonyl)-amino]-methyl}-benzoic acid] | < 1 | ≥ 10
O=C(O)c1cccc(CN([C@]2(C(=O)O)C[C@H]2c2cccc(OCCn3cccn3)c2)S(=O)(=O)c2ccc(-c3ccc(Cl)cc3)cc2)c1 (relative stereo) [Example 1-108, 3-{[{(1R*,2S*)-1-carboxy-2-[3-(2-pyrazol-1-yl-ethoxy)-phenyl]-cyclopropyl}-(4′-chloro-biphenyl-4-sulfonyl)-amino]-methyl}-benzoic acid] | < 1 | ≥ 10

Other lines, results leading:

IC50 (aggrecanase-1) [µM] | IC50 (MMP-1) [µM] | Structure (SMILES)
< 1 | ≥ 10 | O=C(CN([C@]1(C(=O)O)C[C@H]1c1ccccc1)S(=O)(=O)c1ccc(-c2ccc(Cl)cc2)cc1)N1CC(O)C(O)C1 (relative stereo) [Example 1-43, (1R*,2S*)-1-{(4′-chloro-biphenyl-4-sulfonyl)-[2-(3,4-dihydroxy-pyrrolidin-1-yl)-2-oxo-ethyl]-amino}-2-phenyl-cyclopropanecarboxylic acid]
< 1 | ≥ 10 | O=C(O)[C@@]1(N(CCNS(=O)(=O)C(F)(F)F)S(=O)(=O)c2ccc(-c3ccc(Cl)cc3)cc2)C[C@H]1c1ccccc1 (relative stereo) [Example 1-63, (1R*,2S*)-1-[(4′-chloro-biphenyl-4-sulfonyl)-(2-trifluoromethanesulfonylamino-ethyl)-amino]-2-phenyl-cyclopropanecarboxylic acid]
< 1 | ≥ 10 | O=C(O)[C@@]1(N(Cc2nsc(=O)[nH]2)S(=O)(=O)c2ccc(-c3ccc(Cl)cc3)cc2)C[C@H]1c1ccccc1 (relative stereo) [Example 1-71, (1R*,2S*)-1-[(4′-chloro-biphenyl-4-sulfonyl)-(5-oxo-4,5-dihydro-[1,2,4]thiadiazol-3-ylmethyl)-amino]-2-phenyl-cyclopropanecarboxylic acid]
< 0.1 | ≥ 10 | O=C(O)CN([C@]1(C(=O)O)C[C@H]1c1ccccc1Oc1ccccc1)S(=O)(=O)c1ccc(-c2ccc(Cl)cc2)cc1 (relative stereo) [Example 1-42, (1R*,2S*)-1-[carboxymethyl-(4′-chloro-biphenyl-4-sulfonyl)-amino]-2-(2-phenoxy-phenyl)-cyclopropanecarboxylic acid]
< 0.1 | ≥ 10 | O=C(O)CN([C@]1(C(=O)O)C[C@H]1c1cccc(Oc2ccccc2)c1)S(=O)(=O)c1ccc(-c2ccc(Cl)cc2)cc1 (relative stereo) [Example 1-25, (1R*,2S*)-1-[carboxymethyl-(4′-chloro-biphenyl-4-sulfonyl)-amino]-2-(3-phenoxy-phenyl)-cyclopropanecarboxylic acid]
